Common to all, as to type: cell-based
For one assay, the system named is YAP-TEAD interaction. Put plainly: SK-HEP-1 reporter assay (8xTEAD responsive elements driving NanoLuc luciferase). The settings on record: Homo sapiens, SK-HEP1, SK-HEP-1 reporter assay. A digest of the protocol: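 SK-HEP-1 cells stably carrying an 8×TEAD-element NanoLuc reporter were treated in duplicate with 10-point dilutions from a top final 30 μM (0.3% DMSO). After 24 h at 37 °C, luciferase activity was read by luminescence with NanoGlo lysis/substrate reagent, and IC50 values were derived.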
In general terms: Reporter assays use an easily measured gene product as a stand-in for the process of interest.

The subject of a further assay is NCI-H226 cells. Put plainly: Viability assay in NCI-H226 (Yap-dependent) cells, CyQUANT. The settings on record: Homo sapiens. The method, then: (§1) Viability Assay in NCI-H226 (Yap-Dependent) and SW620 Yap KO (Yap Independent) Cells
(§2) The ability of YAP-TEAD inhibitors to inhibit tumor cell growth was evaluated using two different cell lines: NCI-H226, which is a YAP dependent cell line, and SW620 cells, where YAP and TAZ were knocked out using CRISPR to generate a YAP independent cell line.
(§3) For the assay, cells were treated in duplicates with the test compounds in a 10-point dose, 1:3 dilution steps, with the top concentration starting at 30 μM (final concentration in assay). After a 96 hour incubation at 37° C., 95% rH, and 5% CO2, a cell-permeant DNA-binding dye that stains only healthy cells (CyQUANT®, Promega) was added to the cells, allowing the quantification of cell viability.
(§4) Cell Media: The NCI-H226 cells were cultured in the following media: RPMI 1640, +10% FBS, +1× GlutaMAX, +10 mM HEPES, +0.5% Pen/Strep. The SW620-KO cells were cultured in the following media: DMEM/F-12, +10% FBS, +1× GlutaMAX, +10 mM HEPES, +0.5% Pen/Strep.
(§5) Reagents: The reagents used are listed below:
(§6) Cell culture: The cells were examined using an inverted microscope to check for health, cell density, etc. To dissociate adherent cells, the monolayer of cells was washed once with pre-warmed PBS. After removing the PBS, 3 ml pre-warmed Accutase was added to a F75 flask, dispersed evenly and the flask was allowed to sit in incubator for ˜4-5 minutes.
(§7) When a single cell suspension was obtained, 7 ml of prewarmed growth media was added and resuspended with the cells. The cell suspension was transferred to a sterile 15 ml conical centrifuge tube, and spun for 5 min at 300×g, RT. The supernatant was discarded and the pellet was resuspended in 10 ml of pre-warmed growth media.
(§8) The total cell count was determined, and 20 μl of the desired cell number was added to each well of a 384 well plate using a Multidrop Combi. The plates were then incubated for 24 hours at 37° C., 95% rH, and 5% CO2.
(§9) Compound treatment: 24 hours after seeding, the cells were treated with compounds.
(§10) A 1:333 dilution of compounds, diluted in DMSO, was made to get a final concentration of 0.3% DMSO per well. To transfer the compounds to the assay plate, 120 nl was shot from Labcyte low dead volume plates to the cell plates containing 20 μl media/well with the ECHO 555 liquid handling system.
(§11) After treatment, the cells were fed with 20 μl fresh pre-warmed assay media using a Multidrop combi.
(§12) The assay plates were then incubated for 96 h at 37° C., 95% rH, and 5% CO2.
(§13) 96 h after treatment 30 μl of CyQuant® reagent was added to the assay plates using a Multidrop combi in the dark. The plates were then incubated for 1 hour at 37° C., 95% rH and 5% CO2. Thereafter, the assay plates were removed from the incubator and allowed to equilibrate to RT for 30 min in the dark without lid. Finally, they were measured using an EnVision microplate reader with a FITC bottom read program.

The next assay deals with SW620 Yap KO cells. Kind of assay: Viability assay in SW620 Yap KO (Yap independent) cells, CyQUANT. To be noted: Homo sapiens, SW-620. The protocol:
as §1, §2, §3, §4, §5, §6, §7, §8, §9, §10, §11, §12, §13

Our source for the IC50 values is patent US20230174538A1, “Tricyclic heterocycles” (Merck Patent GmbH, priority 2020, published 2023).

pIC50: −log10 of the molar value. Some results are limits rather than exact numbers.

The pIC50 is −log10 of the IC50, conventionally taken in molar units. Read a high pIC50 as a low IC50. For `CSc1ccc2c(c1)c1cn(C)nc1n2-c1ccc(C)cc1` [Example 31, 2-methyl-8-(4-methylphenyl)-5-(methylsulfanyl)-2H,8H-pyrazolo[3,4-b]indole], the negative-log IC50 (pIC50) was 7.00 to 8.00 in the assay with YAP-TEAD interaction, below 5.00 in the assay on NCI-H226 cells and below 4.52 in the assay on SW620 Yap KO cells.

For `Cn1cc2c3cc(C(=O)O)ccc3n(-c3ccc(C4CCCC4)cc3)c2n1` [Example 22, 8-(4-cyclopentylphenyl)-2-methyl-2H,8H-pyrazolo [3,4-b]indole-5-carboxylic acid], the pIC50 in the assay on YAP-TEAD interaction is 7.00 to 8.00; in the assay with NCI-H226 cells it was 6.00 to 7.00; with SW620 Yap KO cells, below 4.52.

Take `Cn1cc2c3cc(C(=O)NCc4n[nH]cc4C4CC4)ccc3n(-c3ccc(C(F)(F)F)cc3)c2n1` [Example B22, N-[(4-cyclopropyl-1H-pyrazol-3-yl)methyl]-2-methyl-8-[4-(trifluoromethyl)phenyl]-2H,8H-pyrazolo[3,4-b]indole-5-carboxamide]: the negative logarithm of the IC50 (pIC50) in the assay on YAP-TEAD interaction is 7.00 to 8.00; in the assay on NCI-H226 cells, 7.00 to 9.00; in the assay on SW620 Yap KO cells, below 4.52.

In the case of `Cn1cc2c3cc(C(=O)O)ccc3n(-c3ccc(F)cc3)c2n1` [Example 10, 8-(4-fluorophenyl)-2-methyl-2H,8H-pyrazolo[3,4-b]indole-5-carboxylic acid], the pIC50 in the assay with YAP-TEAD interaction was 7.00 to 8.00; in the assay on NCI-H226 cells it was 6.00 to 7.00; in the assay with SW620 Yap KO cells, below 4.52.

`CCn1cc(C(O)CNC(=O)c2ccc3c(c2)c2cn(C)nc2n3-c2ccc(C(F)(F)F)cc2)cn1` (stereo not shown) [Example B36, N-[2-(1-ethyl-1H-pyrazol-4-yl)-2-hydroxyethyl]-2-methyl-8-[4-(trifluoromethyl)phenyl]-2H,8H-pyrazolo[3,4-b]indole-5-carboxamide]: the results for the negative logarithm of the IC50 (pIC50) in the assay on YAP-TEAD interaction, in the assay with NCI-H226 cells and in the assay with SW620 Yap KO cells were 7.00 to 8.00, 7.00 to 9.00 and below 4.52, respectively.

Take `Cn1cc2c(n1)c1cc(S(C)(=N)=O)ccc1n2-c1ccc(C(F)(F)F)cc1` (stereo not shown) [Example 35, Imino(methyl){2-methyl-4-[4-(trifluoromethyl)phenyl]-2H,4H-pyrazolo[4,3-b]indol-7-yl}-lambda6-sulfanone]: the pIC50 is 8.00 to 9.00 with YAP-TEAD interaction, 6.00 to 7.00 with NCI-H226 cells and below 4.52 in the assay on SW620 Yap KO cells.

On to `COc1ccc(-n2c3ccc(C(=O)O)cc3c3cn(C)nc32)cc1` [Example 14, 8-(4-methoxyphenyl)-2-methyl-2H,8H-pyrazolo[3,4-b]indole-5-carboxylic acid], for which the pIC50 is 7.00 to 8.00 with YAP-TEAD interaction, 6.00 to 7.00 with NCI-H226 cells and below 4.52 with SW620 Yap KO cells.

Consider `Cn1cc2c3cc(C(=O)O)ccc3n(Cc3ccccc3)c2n1` [Example 12, 8-(Benzyl)-2-methyl-2H,8H-pyrazolo[3,4-b]indole-5-carboxylic acid], for which the results for the pIC50 in the assay on YAP-TEAD interaction, in the assay on NCI-H226 cells and in the assay with SW620 Yap KO cells were 7.00 to 8.00, 6.00 to 7.00 and below 4.52, respectively.

With `CCCn1ncc(CNC(=O)c2ccc3c(c2)c2cn(C)nc2n3-c2ccc(C(F)(F)F)cc2)c1C` [B123^], the pIC50 is 7.00 to 8.00 in the assay on YAP-TEAD interaction and 6.00 to 7.00 in the assay with NCI-H226 cells.

For the compound `CN(C)S(=N)(=O)c1ccc2c(c1)c1nn(C)cc1n2-c1ccc(C(F)(F)F)cc1` (stereo not shown) [Example 36, N,N,2-Trimethyl-4-[4-(trifluoromethyl)phenyl]-2H,4H-pyrazolo[4,3-b]indole-7-sulfonoimidamide], the pIC50 is 8.00 to 9.00 in the assay on YAP-TEAD interaction, 7.00 to 9.00 with NCI-H226 cells and below 4.52 in the assay on SW620 Yap KO cells.

In the case of `Cn1cc2c(n1)c1cc([S+](C)[O-])ccc1n2-c1ccc(C(F)(F)F)cc1` (stereo not shown) [Example 32, 7-methanesulfinyl-2-methyl-4-[4-(trifluoromethyl)phenyl]-2H,4H-pyrazolo[4,3-b]indole], the pIC50 in the assay with YAP-TEAD interaction was 5.00 to 7.00; in the assay on NCI-H226 cells it was below 5.00.

On to `Cc1ccc(-n2c3ccc(C(=O)O)cc3c3cn(C)nc32)cc1` [Example 9, 2-Methyl-8-(4-methylphenyl)-2H,8H-pyrazolo[3,4-b]indole-5-carboxylic acid], for which the negative-log IC50 (pIC50) in the assay with NCI-H226 cells was 7.00 to 9.00; in the assay on SW620 Yap KO cells it was 4.52 to 5.00.

Regarding `Cn1cc2c3cc(C(=O)N4CC5(CCCC5)CC4CO)ccc3n(-c3ccc(C(F)(F)F)cc3)c2n1` (stereo not shown) [Example B10, (2-{2-methyl-8-[4-(trifluoromethyl)phenyl]-2H,8H-pyrazolo[3,4-b]indole-5-carbonyl}-2-azaspiro[4.4]nonan-3-yl)methanol], in the assay with YAP-TEAD interaction, the pIC50 is 5.00 to 7.00.

With `Cn1cc2c3cc(C(=O)NCc4c(C5CC5)cnn4C)ccc3n(-c3ccc(C(F)(F)F)cc3)c2n1` [B102^], the negative-log IC50 (pIC50) with YAP-TEAD interaction was 7.00 to 8.00.

In turn, `Cn1cc2c3cc(C(=O)N4CC(CO)(n5cccn5)C4)ccc3n(-c3ccc(C(F)(F)F)cc3)c2n1` [B130^] showed a pIC50 with YAP-TEAD interaction of 5.00 to 7.00.

Compound `Cn1cc2c3cc(C(=O)NC[C@@H]4C[C@H]4c4ccco4)ccc3n(-c3ccc(C(F)(F)F)cc3)c2n1` [B128^] had a pIC50 in the assay with YAP-TEAD interaction of 5.00 to 7.00.

With `CC(NC(=O)c1ccc2c(c1)c1cn(C)nc1n2-c1ccc(C(F)(F)F)cc1)c1c[nH]cn1` (stereo not shown) [Example B5, N-[1-(1H-imidazol-4-yl)ethyl]-2-methyl-8-[4-(trifluoromethyl)phenyl]-2H,8H-pyrazolo[3,4-b]indole-5-carboxamide], the pIC50 in the assay with YAP-TEAD interaction is 5.00 to 7.00.

In turn, `Cc1nc(CCCNC(=O)c2ccc3c(c2)c2cn(C)nc2n3-c2ccc(C(F)(F)F)cc2)n[nH]1` [B121^] gave a pIC50 in the assay with YAP-TEAD interaction of 5.00 to 7.00.

In turn, `CN(Cc1conc1C1CC1)C(=O)c1ccc2c(c1)c1cn(C)nc1n2-c1ccc(C(F)(F)F)cc1` [Example B88, N-[(3-cyclopropyl-1,2-oxazol-4-yl)methyl]-N,2-dimethyl-8-[4-(trifluoromethyl)phenyl]-2H,8H-pyrazolo[3,4-b]indole-5-carboxamide] showed a negative logarithm of the IC50 (pIC50) in the assay with YAP-TEAD interaction below 5.00.

In the case of `Cn1cc2c3cc(C(=O)N4CCCC4c4ncc[nH]4)ccc3n(-c3ccc(C(F)(F)F)cc3)c2n1` (stereo not shown) [Example B52, 2-(1-{2-methyl-8-[4-(trifluoromethyl)phenyl]-2H,8H-pyrazolo[3,4-b]indole-5-carbonyl}pyrrolidin-2-yl)-1H-imidazole], the pIC50 in the assay with YAP-TEAD interaction is below 5.00.

In turn, `CN(Cc1noc(C2CC2)n1)C(=O)c1ccc2c(c1)c1cn(C)nc1n2-c1ccc(C(F)(F)F)cc1` [B137^] gave a negative logarithm of the IC50 (pIC50) with YAP-TEAD interaction below 5.00.

In the case of `CN1CCN(C(=O)c2ccc3c(c2)c2cn(C)nc2n3-c2ccc(C(F)(F)F)cc2)CC1CO` (stereo not shown) [Example B65, (1-methyl-4-{2-methyl-8-[4-(trifluoromethyl)phenyl]-2H,8H-pyrazolo[3,4-b]indole-5-carbonyl}piperazin-2-yl)methanol], the pIC50 in the assay with YAP-TEAD interaction was below 5.00.

In the assay on YAP-TEAD interaction, `Cn1cc2c3cc(C(=O)N4CCCC4c4ccc[nH]4)ccc3n(-c3ccc(C(F)(F)F)cc3)c2n1` (stereo not shown) [Example B13, 2-(1-{2-methyl-8-[4-(trifluoromethyl)-phenyl]-2H,8H-pyrazolo[3,4-b]indole-5-carbonyl}pyrrolidin-2-yl)-1H-pyrrole] showed a pIC50 of 5.00 to 7.00.

In the case of `COCCC1CN(C(=O)c2ccc3c(c2)c2cn(C)nc2n3-c2ccc(C(F)(F)F)cc2)CCO1` (stereo not shown) [B111^], the pIC50 in the assay on YAP-TEAD interaction is below 5.00.

As for `Cn1cc2c3cc(C(=O)NCCc4cccc(F)n4)ccc3n(-c3ccc(C(F)(F)F)cc3)c2n1` [Example B84, N-[2-(6-fluoropyridin-2-yl)ethyl]-2-methyl-8-[4-(trifluoromethyl)phenyl]-2H,8H-pyrazolo[3,4-b]indole-5-carboxamide], the pIC50 in the assay on YAP-TEAD interaction was below 5.00.

The compound `Cn1cc2c3cc(C(=O)NCc4ncn5c4CCCC5)ccc3n(-c3ccc(C(F)(F)F)cc3)c2n1` [Example B20, N-({5H,6H,7H,8H-imidazo[1,5-a]pyridin-1-yl}methyl)-2-methyl-8-[4-(trifluoromethyl)phenyl]-2H,8H-pyrazolo[3,4-b]indole-5-carboxamide] gave a negative-log IC50 (pIC50) with YAP-TEAD interaction below 5.00.

`Cn1cc2c3cc(C(=O)NC4(c5nnc[nH]5)CC4)ccc3n(-c3ccc(C(F)(F)F)cc3)c2n1` [B134^] had a pIC50 with YAP-TEAD interaction of 5.00 to 7.00.

As to `Cn1cc2c3cc(C(=O)N4CCn5nccc5C4CO)ccc3n(-c3ccc(C(F)(F)F)cc3)c2n1` (stereo not shown) [Example B40], the pIC50 in the assay on YAP-TEAD interaction was below 5.00.
